Results: patent US12365665B2, “Solid form of diaminopyrimidine compound or hydrate thereof, preparation method therefor, and application thereof” (BEIJING TIDE PHARMACEUTICAL CO., LTD., priority 2020, dated 2025)

Experiments:
Type in all cases: physicochemical
[1] = High temperature stability test (XRPD); conditions: 60° C.
Protocol: (§1) The detection instruments and conditions used in the following examples are as follows: • (1) X-Ray Powder Diffraction (XRPD) • Instrument Model: Bruker D8 advance, equipped with a LynxEye detector • Test conditions: the anode target material was copper, the light pipe was set to (40 KV 40 mA), the 2θ scan angle for the sample was from 3° to 40°, and scan step was 0.02°. • (2) Differential Scanning Calorimetry Analysis (DSC) • Instrument Model: TA Discovery DSC 250 (TA Instruments, US) • Test conditions: the heating rate was 10° C./min, and dry nitrogen was used as the purge gas. • (3) Thermogravimetric Analysis (TGA) • Instrument Model: Discovery TGA 55 (TA Instruments, US) • Test conditions: automatic weighing in the heating furnace, the heating rate was 10° C./min, and dry nitrogen was used as the purge gas. • (4) Polarizing Microscope Analysis (PLM) • Instrument Model: Polarizing Microscope ECLIPSE LV100POL (Nikon, JPN)
The stability of the crystalline form I prepared in Example 2 was investigated at 60° C., and the XRPD pattern was measured with a Bruker D8 advance X-ray powder diffractometer (see FIG. 19).

[2] = High humidity stability test (XRPD); conditions: 92.5% RH/25° C., after 5, 10 and 30 days
Protocol: as §1
The stability of the crystalline form I prepared in Example 2 was investigated under a condition of 92.5% RH/25° C., and the XRPD pattern was measured with a Bruker D8 advance X-ray powder diffractometer (see FIG. 20).

[3] = Physical grinding stability test (XRPD); conditions: physically ground for 2 minutes
Protocol: as §1
The crystalline form I prepared in Example 2 was physically ground for 2 minutes, and then the XRPD pattern was measured with a Bruker D8 advance X-ray powder diffractometer (see FIG. 21).

[4] = Room temperature stability test (XRPD before and after storage); conditions: sealed in medicinal low-density polyethylene bag, 180 days
Protocol: as §1, with “JPN) […]” for “JPN)”

change in the crystalline form after storage under a high temperature condition (summary statement) ([1]; 30 days): its crystalline form did not change
change in the crystalline form (XRPD) at high temperature ([1]; after 5, 10 and 30 days): no change in the crystalline form
change in the crystalline form (XRPD) at high humidity [2]: no change in the crystalline form
change in the crystalline form (XRPD) after physical grinding [3]: no change in the crystalline form
change in the crystalline form (XRPD) after storage at room temperature [4]: no change in the crystalline form
SMILES: C#Cc1cc(Oc2cnc(N)nc2N)c(C(C)C)cn1 [crystalline form I, 5-((2-ethynyl-5-isopropylpyridin-4-yl)oxy)pyrimidine-2,4-diamine]
